# Test results taken from patent US11680073B2, “Anticancer indenes, indanes, azaindenes, azaindanes, pharmaceutical compositions and uses” (ADT PHARMACEUTICALS, LLC, priority 2018, dated 2023).
# How the values were obtained:
# [1] = system: cells expressing mutant Ras; settings: cited from earlier work
# [2] = system: HCT-116, a highly Ras-driven line expressing mutant Ras; experiment: Tumor cell growth inhibition, CellTiter-Glo ATP luminescence assay, HCT-116; assay type: cell-based, human; settings: for IC50: HCT-116, 72 h, human colon tumor cells, mutant Ras, 3-day treatment, ten-fold serial dilutions, read-out: micromolar IC50 for HCT-116; for HT-29/HCT-116 Ras Inhibitory Selectivity Index: ratio IC50 HT-29 / IC50 HCT-116, numbers greater than one indicate Ras selectivity
# Procedure: (§1) Human cancer cell lines are obtained from the American Type Culture Collection (ATCC). Cells are cultured using standard methods in RPMI-1640 growth medium supplemented with 5% fetal bovine serum (FBS). CellTiter-Glo ATP cell growth assay reagents are obtained from Promega and used according to the manufacturer's protocol. Cells are plated at a density of 5,000 cells per well in 96-well microplates or 1,250 cells per well in 384-well plates, then allowed to attach for at least 4 h. Test compounds are dissolved in dimethyl sulfoxide (DMSO), and this working stock is further diluted in growth medium for addition to cell cultures. Serial dilutions of the test compound are prepared in growth medium containing an equal amount of DMSO not exceeding 0.2% final concentration. Each compound concentration is tested in at least 3 separate samples per cell line. At the end of a 3-day treatment period, growth inhibition is analyzed using a bioluminescent assay of ATP concentration (Promega CellTiter-Glo) according to the manufacturer's protocol. Resulting luminescence is measured using the luminescence cartridge of the Molecular Devices Spectramax Paradigm microplate reader. Relative growth inhibition for each sample is determined by comparison with the values obtained for vehicle treated control samples. Growth inhibition values are plotted with the GraphPad Prism5 software using the 4-parameter logistic fit to obtain IC50 values, which corresponds to the growth inhibitory potency of the compound.
# (§2) This selected example illustrates the use of well-established human colon tumor cell lines with widely divergent Ras activation status to determine tumor cell growth inhibitory activity (IC50 values) and Ras selectivity values for some selected exemplary compounds of the present invention. Cell lines thus employed in this example are HCT-116, a highly Ras-driven line expressing mutant Ras, and HT-29, a non-Ras-driven line expressing wild-type, non-mutated Ras. Cells are plated at 5000 cells/well in 96-well plates, ten-fold serial dilutions of compounds are tested, each tested concentration in at least 3 separate samples per cell line, and viable cell numbers are measured using the Cell Titer Glo ATP luminescence assay (Promega). […] FIGS. 5-7 provide examples of full data sets from which numerical values, including Ras selectivity indices, can be calculated; data sets are shown for selected exemplary compounds 2090, 2096 and 2183. […]
# [3] = system: HT-29, a non-Ras-driven line expressing wild-type, non-mutated Ras; experiment: Tumor cell growth inhibition, CellTiter-Glo ATP luminescence assay, HT-29; assay type: cell-based; settings: HT-29, 72 h, human colon tumor cells, 3-day treatment, ten-fold serial dilutions, read-out: micromolar IC50 for HT-29
# Procedure: as §1, §2
SMILES,IC50 [2] [µM],IC50 [3] [µM],"IC50 ([1]; cells expressing mutant Ras, read-out: IC50, growth inhibition of cells expressing mutant Ras) [µM]",selectivity versus cells lacking oncogenic Ras ([1]; versus cells lacking oncogenic Ras) [fold],HT-29/HCT-116 Ras Inhibitory Selectivity Index [2]
Cc1onc(C(=O)N2CCN(C(c3ccc(Cl)cc3)c3ccc(Cl)cc3)CC2)c1[N+](=O)[O-] [ML210],,,0.071,4,
"COc1cc(/C=C2/C(C)=C(CC(=O)NCc3cccnc3)c3cc(F)ccc32)cc(OC)c1B(O)O [compound 1736, (Z)-(4-((5-fluoro-2-methyl-3-(2-oxo-2-((pyridin-3-ylmethyl)amino)ethyl)-1H-inden-1-ylidene)methyl)-2,6-dimethoxyphenyl)boronic acid]",5.05,5.59,,,1.11
"COc1cc(/C=C2/C(C)=C(CC(=O)NCc3cccnc3)c3cc(F)ccc32)cc(OC)c1B1OC(C)(C)C(C)(C)O1 [compound 2200, (Z)-2-(1-(3,5-dimethoxy-4-(4,4,5,5-tetramethyl-1,3,2-dioxaborolan-2-yl)benzylidene)-5-fluoro-2-methyl-1H-inden-3-yl)-N-(pyridin-3-ylmethyl)acetamide]",6.18,6.65,,,1.08

# Continued by falling IC50 [2], values first:
IC50 [2] [µM],IC50 [3] [µM],SMILES,"IC50 ([1]; cells expressing mutant Ras, read-out: IC50, growth inhibition of cells expressing mutant Ras) [µM]",selectivity versus cells lacking oncogenic Ras ([1]; versus cells lacking oncogenic Ras) [fold],HT-29/HCT-116 Ras Inhibitory Selectivity Index [2]
0.42,9.28,"COc1cc(/C=C2/C(C)=C(CNC(=O)c3cn[nH]c3)c3cc(F)ccc32)cc(OC)c1O [compound 2183, (Z)—N-((5-fluoro-1-(4-hydroxy-3,5-dimethoxybenzylidene)-2-methyl-1H-inden-3-yl)methyl)-1H-pyrazole-4-carboxamide]",,,22
0.3,13,"COc1cc(/C=C2/C(C)=C(CNC(=O)c3ccco3)c3cc(F)ccc32)cc(OC)c1O [compound 2090, (Z)—N-((5-fluoro-1-(4-hydroxy-3,5-dimethoxybenzylidene)-2-methyl-1H-inden-3-yl)methyl)furan-2-carboxamide]",,,43
0.212,8.03,"COc1cc(CC2c3ccc(F)cc3C(CC(=O)NCc3ccccc3)C2C)cc(OC)c1O (centres unmarked) [compound 1796, N-benzyl-2-(6-fluoro-3-(4-hydroxy-3,5-dimethoxybenzyl)-2-methyl-2,3-dihydro-1H-inden-1-yl)acetamide]",,,38
0.033,9,"COc1cc(/C=C2/C(C)=C(CNC(=O)Cc3cccnc3)c3cc(F)ccc32)cc(OC)c1O [compound 2096, (Z)—N-((5-fluoro-1-(4-hydroxy-3,5-dimethoxybenzylidene)-2-methyl-1H-inden-3-yl)methyl)-2-(pyridin-3-yl)acetamide]",,,273
